The values that follow are results of earlier work, collected in patent publication US20160310758A1, “SYSTEMS AND METHODS FOR PHOTOACTIVATING A PHOTOSENSITIZER APPLIED TO AN EYE” (Avedro, Inc., priority 2015, published 2016).

The conditions of data set [1]: non-ionic permeability enhancer in riboflavin formulations.
Data set [2] relates to bacteria. Particulars: D2O by itself, without photosensitizer; Skladnev et al. 1996.

With “Polyoxyethylene (9) lauryl ether [Polidocanol]”, in data set [1], the HLB number result was “approximately 13.6”. As for `[2H]O[2H]` [D2O, deuterated water], the killing of bacteria result in data set [2] was “does not kill bacteria”.
